Reference: patent US20010000513A1, “Biphenyl butyric acids and their derivatives as inhibitors of matrix metalloproteinases” (priority 1996, published 2001)

How the values were obtained:
[1] = tested on: male Wistar rats, polyarthritis induced by Mycobacterium butyricum; assay: Adjuvant Arthritis Model, hind paw edema; type: in vivo; settings: P <0.001
Protocol: Polyarthritis was induced by a modified method of the procedure developed by Chang, et al., Arthritis and Rheum., 1980;23:62. Briefly, male Wistar rats (100-115 g each) received subcutaneous injection of 0.1 mL of 10 mg/mL (or 1 mg) Mycobacterium butyricum suspended in paraffin oil in the distal third of the tail, using a glass tuberculin syringe and 25 gauge needle. M. Butyricum suspension was achieved by sonication in paraffin oil for 10 minutes with the vessel immersed in ice bath. Rates were randomized after injection and placed in cages. […] The rest were randomized and separated into dosing (test) groups (N=10 per group) and control (vehicle) group (N=20). The hind paws volume and the weights of each animal in each group was recorded and served as the initial values for the study. Hind paw swelling was assessed using mercury plethysmography beginning on Day 12 and every other day till Day 22 (final assessment).
The dose volume was 10 mL/kg PO. Animals were dosed twice daily for 10 days starting on Day 12. Also, hind paw volumes were measured on Days 12, 14, 16, 18, 20, and 22 as stated above. The results are reported as % inhibition of delta edema on Day 22. Delta edema is the difference in footpad edema between the day in which animals are assessed and that on Day 12 of the study. The percent inhibition is based on a comparison of the treatment groups to the vehicle group.

[2] = tested on: mice sensitized with a fragment of mouse myelin basic protein to induce EAE; assay: Experimental Autoimmune Encephalomyelitis (EAE); type: in vivo
Protocol: Compounds were administered by oral route to mice sensitized with a fragment of mouse myelin basic protein to induce EAE. Mice were dosed daily for 21 days beginning 4 hours before sensitization on day one. EAE responses of compound treated groups were compared to those of a control group of mice sensitized identically and a sham-sensitized group treated with vehicle. The values reported in Table 2 include responses during compound treatment only.
Sensitization Female mice [PL/J(FI)×SJL/J, Jackson Labs], 11 weeks old, were sensitized s.c. (0.05 cc×2) at the base of the tail with an emulsion containing equal parts of mouse myelin basic protein (MBP) fragment (amino acids 1-9 of the N-terminus of MBP) in saline and Difco Complete Freund's Adjuvant (CFA) fortified with heat killed desiccated Mycobacteria tuberculosis (MT). Each mouse received 300 μg of MBP fragment (230 μg free base) and 200 μg MT followed by retrobulbar (IV) injection of 200 ng of B. pertussis toxin in 0.2 cc of saline. Two days later mice receive a second injection of B. pertussis toxin.
Neurological Assessment Animals were weighed and evaluated for symptoms of EAE before and frequently after sensitization. EAE score: (0.5=slight limp tail, 1=limp tail or slow to right, 1.5=slight limp tail and slow to right, 2=paresis/mild paralysis or incontinence, 2.5=mild paralysis and slow to right or complete paralysis (one hind limb), 3=hind limb paralysis (both), 3.5=hind limb paralysis (both) and limp torso; 4=additional fore limb paralysis, 4.5=head movement only, 5=moribund, death after previous EAE symptoms). Evaluators were blinded as to compound treatments and previous behavioral scores.
Disease symptoms are compared among groups for EAE severity, incidence, time to onset, cumulative score, and deaths. Peak EAE score: the mean of the highest score for each mouse in a group, independent of duration of symptoms; EAE incidence: the mean number of mice showing symptoms of EAE, defined as having EAE scores on any 3 consecutive days that total “≧3.0”. EAE deaths: an animal that died must have presented previous evidence of an EAE score greater than 0.5; EAE onset: the first of a 3-day series scoring a total of ≧3.0.
A Cumulative EAE score is calculated for each animal. A mean of all animals' cumulative scores is then determined for each day.
Experimental groups were assumed to be similar and were compared for statistical significance by a 2-tailed T-Test (p≦0.05).
Compound was homogenized manually with an aliquot of warm vehicle (1.0% hydroxypropyl-methylcellulose [Sigma] in water) in glass mortar tubes and homogenizing pestle. The smooth compound paste was gradually suspended in vehicle. Mice were dosed with compound and/or vehicle, 10 mL/kg in groups of ten. A sham-sensitized group was similarly dosed with vehicle.

[3] = tested on: Male Swiss-Webster mice, 0.6% acetic acid i.p.; assay: Acetic Acid-Induced Hyperalgesia Model, writhing; type: in vivo; settings: for % Inhibition (writhing): 1 hour before acetic acid
Protocol: Treatment groups (n=8) were divided so that 2 animals were placed into each of four 4″×4″×4″ adjacent plexiglass containers. Seven minutes after acid, writhing motions (abdominal contractions, concave arching of the back, and/or hindleg stretching) were tallied for 5 minutes. The ID40 value was calculated by linear regression analysis.

[4] = tested on: Female Lewis rats sensitized to streptococcal cell walls; assay: Streptococcal Cell Wall Model (SCW), paw swelling; type: in vivo; settings: rat SCW flare
Protocol: Female Lewis rats (125-150 g) are sensitized to the 100 P preparation of streptococcal cell walls (obtained from Lee Labs, Greyson, Ga.) with an intra-articular injection of 10 μL SCW containing 6 μg of the cell wall particles into one of the ankle joints. The contralateral ankle joint is injected with an equal volume of saline. Twenty-one days later, animals are placed in treatment groups (7 per group) according to their immediate response to the intra-articular injection of SCW (to obtain groups with equivalent responses). A control group is injected with saline. Each animal is then lightly anesthetized with ether, the paw volumes of each hind paw are determined by mercury plethysmography, and the animals are injected IV via the tail vein with a 0.25-mL dose of SCW containing 100 μg of the 100 P cell wall particles. Each group of rats receives an oral dose of compound for 7 days in an appropriate dosing vehicle beginning on Day 21. Paw swelling is determined by subtracting the paw volume of the saline injected ankle from the SCW sensitized ankle. Percent inhibition is calculated by comparing the compound treatment group with the control group. A one-way analysis of variance with a Dunnett's test for multiple comparisons is used for determination of statistical power. Rats were sensitized 21 days prior to initiating the flare response by systemic SCW. […] Paw volume was measured 24 hours after the first administration. Numbers represent the mean percent inhibition of swelling from 10 animals/treatment group.

## O=C(O)CCC(=NO)c1ccc(-c2ccc(Cl)cc2)cc1 [Example 1, 4-(4′-Chloro-biphenyl−4-yl)-4-hydroxyimino-butyric acid]
[1]; 3.0 mg/kg bid PO for 10 days from Day 12
  % Inhibition of delta edema on Day 22: 68.1%
[1]; 10.0 mg/kg bid PO for 10 days from Day 12
  % Inhibition of delta edema on Day 22: 84.4%
[1]; 30.0 mg/kg bid PO for 10 days from Day 12
  % Inhibition of delta edema on Day 22: 99.9%
[2]; 50 mg/kg oral
  effect on EAE cumulative score: reduced the EAE cumulative score
[2]; 50 mg/kg oral daily for 21 days, control 12.2 ± 0.9, p ≦0.05 vs control
  EAE Onset: 16.2 ± 1.0 days
[2]; 50 mg/kg oral daily for 21 days, control 31.6 ± 1.7, p ≦0.05 vs control
  EAE Cumulative Score: 17.9 ± 2.8
[2]; 50 mg/kg oral daily for 21 days, during compound treatment, control 2/10
  EAE Deaths: 0/10
[2]; 50 mg/kg oral daily for 21 days, mice with EAE/group, control 10/10
  EAE Incidence: 9/10
[2]; 50 mg/kg oral daily for 21 days, responses during compound treatment only, control 4.2 ± 0.1
  Peak EAE Score: 3.8 ± 0.3
[2]; 50 mg/kg oral, to Day 43
  EAE-induced deaths to Day 43: no EAE-induced deaths
[2]; dosed at 50 mg/kg oral
  delay of the onset of EAE: 4 days
[3]; 0.03 mg/kg oral
  % Inhibition (writhing): 7%
[3]; 0.1 mg/kg oral
  % Inhibition (writhing): 26%
[3]; 0.3 mg/kg oral
  % Inhibition (writhing): 37%
[3]; 1 mg/kg oral
  % Inhibition (writhing): 41%
[3]; 10 mg/kg oral
  % Inhibition (writhing): 65%
[3]; oral, calculated by linear regression analysis
  ID40: 0.65 mg/kg
[4]; 3 mg/kg bid oral
  % Inhibition at Day 4 (paw swelling): 71%
[4]; 10 mg/kg bid oral
  % Inhibition at Day 4 (paw swelling): 86%
[4]; 30 mg/kg bid oral
  % Inhibition at Day 4 (paw swelling): 86%

## O=C(O)CCC(=NO)c1ccc(-c2ccc(Br)cc2)cc1 [Example 2, 4-(4′-Bromo-biphenyl-4-yl)-4-hydroxyimino-butyric acid]
other
  melting point: 175 to 176 °C

## CN(C)N=C(CCC(=O)O)c1ccc(-c2ccc(Cl)cc2)cc1 [Example 3, 4-(4′-Chloro-biphenyl-4-yl)-4-(dimethylhydrazono)-butyric acid]
other
  melting point: 158 to 160 °C

## CON=C(CCC(=O)[O-])c1ccc(-c2ccc(Cl)cc2)cc1.[Na+] [Example 8, 4-(4′-Chloro-biphenyl-4-yl)-4-methoxyimino-butyric acid, sodium salt]
other
  melting point: 234 to 238 °C

## CON=C(CCC(=O)O)c1ccc(-c2ccc(Cl)cc2)cc1 [Example 9, 4-(4′-Chloro-biphenyl-4-yl)-4-methoxyimino-butyric acid]
other
  melting point: 183 to 186 °C

## O=C(O)CCC(=NO)c1ccc(-c2ccc(Cl)cc2F)cc1 [Example 10, 4-(4′-Chloro-2′-fluoro-biphenyl-4-yl)-4-hydroxyimino-butyric acid]
other
  melting point: 147.5 to 149.5 °C

## O=C(O)CCC(=NO)c1ccc(-c2ccccc2F)cc1 [Example 11, 4-(2′-Fluoro-biphenyl-4-yl)-4-hydroxyimino-butyric acid]
other
  melting point: 150 to 151.5 °C

## Cc1ccc(-c2ccc(C(CCC(=O)O)=NO)cc2)cc1 [Example 12, 4-Hydroxyimino-4-(4′-methyl-biphenyl-4-yl)-butyric acid]
other
  melting point: 176.5 to 177.5 °C

## COc1ccc(-c2ccc(C(CCC(=O)O)=NO)cc2)cc1 [Example 13, 4-Hydroxyimino-4-(4′-methoxy-biphenyl-4-yl)-butyric acid]
other
  melting point: 157 to 160 °C

## N#Cc1ccc(-c2ccc(C(CCC(=O)O)=NO)cc2)cc1 [Example 14, 4-(4′-Cyano-biphenyl-4-yl)-4-hydroxyimino-butyric acid]
other
  melting point: 157 to 159 °C

## O=C(O)CCC(=NO)c1ccc(-c2cccc(F)c2)cc1 [Example 15, 4-(3′-Fluoro-biphenyl-4-yl)-4-hydroxyimino-butyric acid]
other
  melting point: 155 to 157 °C

## O=C(O)CCC(=NO)c1ccc(-c2ccc(C(F)(F)F)cc2)cc1 [Example 16, 4-Hydroxyimino-4-(4′-trifluoromethyl-biphenyl-4-yl)-butyric acid]
other
  melting point: 134 to 136 °C

## CSc1ccc(-c2ccc(C(CCC(=O)O)=NO)cc2)cc1 [Example 17, 4-Hydroxyimino-4-(4′-methylsulfanyl-biphenyl-4-yl)-butyric acid]
other
  melting point: 162 to 164 °C

## O=C1CCC(c2ccc(-c3ccc(Cl)cc3)cc2)=NO1 [Example 18, 3-(4′-Chloro-biphenyl-4-yl)-4,5-dihydro-6-oxo-6H-1,2-oxazine]
other
  melting point: 190 to 192 °C
